molecular target: PD-1/PD-L1 (Homo sapiens (Human), UniProt Q9NZQ7); assay: PD-1/PD-L1 Homogeneous Time-Resolved Fluorescence (HTRF) Binding Assay; conditions: recombinant human PD-1 (3 nM) and PD-L1 (10 nM), 25° C., PBS pH 7.4
In short: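 Fc-tagged human PD-1 (25-167, 3 nM) and His-tagged PD-L1 (19-238, 10 nM) preincubated with inhibitor 40 min in PBS pH 7.4, 0.05% Tween-20, 0.1% BSA, 1% DMSO, 25 °C. Binding detected by HTRF (Eu anti-IgG/APC anti-His, 665/620 nm) after 60 min; IC50 from percent control activity.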

Chain of PD-1/PD-L1 (Q9NZQ7 19-238): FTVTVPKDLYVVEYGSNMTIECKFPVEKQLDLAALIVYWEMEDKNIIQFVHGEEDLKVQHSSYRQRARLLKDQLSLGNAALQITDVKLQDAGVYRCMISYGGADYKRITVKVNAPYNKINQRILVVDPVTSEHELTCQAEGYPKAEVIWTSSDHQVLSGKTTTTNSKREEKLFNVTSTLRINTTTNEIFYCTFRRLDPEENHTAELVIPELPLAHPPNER

IC50, ≤ 10 nM:
Cc1c(-c2nc3cc(CN4CC[C@@H](O)C4)cc(C#N)c3o2)cccc1-c1cccc(NC(=O)c2nc3c(n2C)CC(C)(C(=O)O)N(C)C3)c1Cl (stereo partly drawn) [Example 165, 2-(2-chloro-3′-(7-cyano-5-(((R)-3-hydroxypyrrolidin-1-yl)methyl)benzo[d]oxazol-2-yl)-2′-methylbiphenyl-3-ylcarbamoyl)-1,5,6-trimethyl-4,5,6,7-tetrahydro-1H-imidazo[4,5-c]pyridine-6-carboxylic acid]
CCN1CCc2c(nc(C(=O)Nc3cccc(-c4cccc(-c5nc6cc(CN7CC[C@H](C(=O)O)C7)cc(C#N)c6o5)c4C)c3C)n2C)C1 [Example 37, (S)-1-((7-cyano-2-(3′-(5-ethyl-1-methyl-4,5,6,7-tetrahydro-1H-imidazo[4,5-c]pyridine-2-carboxamido)-2,2′-dimethylbiphenyl-3-yl)benzo[d]oxazol-5-yl)methyl)pyrrolidine-3-carboxylic acid]
Cc1c(Nc2nccc3cc(CN4CC[C@@](C)(C(=O)O)C4)cnc23)cccc1-c1cccc(-c2nc3cc(CN[C@@H](C)CO)cc(C#N)c3o2)c1C [Example 215, (R)-1-((8-(3′-(7-cyano-5-(((S)-1-hydroxypropan-2-ylamino)methyl)benzo[d]oxazol-2-yl)-2,2′-dimethylbiphenyl-3-ylamino)-1,7-naphthyridin-3-yl)methyl)-3-methylpyrrolidine-3-carboxylic acid]
Cc1c(-c2nc3cc(CN4CC[C@@H](O)C4)cc(C#N)c3o2)cccc1-c1cccc(NC(=O)c2nc3c(n2C)CCN(CC24CC(C(=O)O)(C2)C4)C3)c1Cl [Example 262, (R)-3-((2-(2-chloro-3′-(7-cyano-5-((3-hydroxypyrrolidin-1-yl)methyl)benzo[d]oxazol-2-yl)-2′-methylbiphenyl-3-yl-carbamoyl)-1-methyl-6,7-dihydro-1H-imidazo[4,5-c]pyridin-5(4H)-yl)methyl)bicyclo[1.1.1]-pentane-1-carboxylic acid]
Cc1c(Nc2nccc3cc(CN4CC[C@@H](O)C4)cnc23)cccc1-c1cccc(-c2nc3cc(CN[C@H]4C[C@H](C(=O)O)C4)cc(C#N)c3o2)c1C [Example 181, trans-3-((7-cyano-2-(3′-(3-(((R)-3-hydroxypyrrolidin-1-yl)methyl)-1,7-naphthyridin-8-ylamino)-2,2′-dimethylbiphenyl-3-yl)benzo [d]oxazol-5-yl)methylamino)cyclobutane carboxylic acid]
Cc1c(Nc2nccc3cc(CNCCO)cnc23)cccc1-c1cccc(-c2nc3cc(CN4CC[C@@](C)(C(=O)O)C4)cc(C#N)c3o2)c1C [Example 189, (R)-1-((7-cyano-2-(3′-(3-((2-hydroxyethylamino)methyl)-1,7-naphthyridin-8-ylamino)-2,2′-dimethylbiphenyl-3-yl)benzo[d]oxazol-5-yl)methyl)-3-methylpyrrolidine-3-carboxylic acid]
Cc1c(-c2nc3cc(CN4CCCC4)cc(C#N)c3o2)cccc1-c1cccc(NC(=O)c2nc3c(n2C)CCN(C[C@H]2CC[C@H](C(=O)O)CC2)C3)c1Cl [Example 271, trans-4-((2-(2-chloro-3′-(7-cyano-5-(pyrrolidin-1-ylmethyl)benzo[d]oxazol-2-yl)-2′-methylbiphenyl-3-ylcarbamoyl)-1-methyl-6,7-dihydro-1H-imidazo[4,5-c]pyridin-5(4H)-yl)methyl)cyclohexanecarboxylic acid]
Cc1c(Nc2nccc3cc(CCN4CC[C@@H](O)C4)cnc23)cccc1-c1cccc(-c2nc3cc(CN4CC[C@@H](C(=O)O)C4)cc(C#N)c3o2)c1C [Example 167, (R)-1-((7-cyano-2-(3′-(3-(2-((R)-3-hydroxypyrrolidin-1-yl)ethyl)-1,7-naphthyridin-8-ylamino)-2,2′-dimethylbiphenyl-3-yl)benzo[d]oxazol-5-yl)methyl)pyrrolidine-3-carboxylic acid]
Cc1c(-c2nc3cc(CN4CCC(C(=O)O)CC4)cc(C#N)c3o2)cccc1-c1cccc(NC(=O)c2nc3c(n2C)CCNC3)c1Cl [Example 154, 1-((2-(2′-chloro-2-methyl-3′-(1-methyl-4,5,6,7-tetrahydro-1H-imidazo[4,5-c]pyridine-2-carboxamido)biphenyl-3-yl)-7-cyanobenzo[d]oxazol-5-yl)methyl)piperidine-4-carboxylic acid]
Cc1c(-c2nc3c(o2)CN(C(=O)CCN(C)C)C3)cccc1-c1cccc(-c2nc3cc(CN4CC[C@@H](C(=O)O)C4)cc(C#N)c3o2)c1C [Example 125, (R)-1-((7-cyano-2-(3′-(5-(3-(dimethylamino)propanoyl)-5,6-dihydro-4H-pyrrolo[3,4-d]oxazol-2-yl)-2,2′-dimethyl-[1,1′-biphenyl]-3-yl)benzo[d]oxazol-5-yl)methyl)pyrrolidine-3-carboxylic acid]
Cc1c(Nc2nccc3cc(CN4CC[C@@H](O)C4)cnc23)cccc1-c1cccc(-c2nc3cc(CN4CC[C@@H](C(=O)O)C4)cc(C#N)c3o2)c1Cl [Example 168, (R)-1-((2-(2-chloro-3′-(3-(((R)-3-hydroxypyrrolidin-1-yl)methyl)-1,7-naphthyridin-8-ylamino)-2′-methylbiphenyl-3-yl)-7-cyanobenzo[d]oxazol-5-yl)methyl)pyrrolidine-3-carboxylic acid]
Cc1c(Nc2nccc3cc(CN4CCCC4)cnc23)cccc1-c1cccc(-c2nc3cc(CN4CC[C@@H](C(=O)O)C4)cc(C#N)c3o2)c1C [Example 134, (R)-1-((7-cyano-2-(2,2′-dimethyl-3′-(3-(pyrrolidin-1-ylmethyl)-1,7-naphthyridin-8-ylamino)biphenyl-3-yl)benzo[d]oxazol-5-yl)methyl)pyrrolidine-3-carboxylic acid]
Cc1c(Nc2nccc3cc(CN4CC[C@@H](O)C4)cnc23)cccc1-c1cccc(-c2nc3cc(CN4CC5(C(=O)O)CC4C5)cc(C#N)c3o2)c1C [Example 178, (R)-2-((7-cyano-2-(3′-(3-((3-hydroxypyrrolidin-1-yl)methyl)-1,7-naphthyridin-8-ylamino)-2,2′-dimethylbiphenyl-3-yl)benzo[d]oxazol-5-yl)methyl)-2-aza bicyclo[2.1.1]hexane-4-carboxylic acid]
Cc1c(Nc2nccc3cc(CN4CC[C@@H](O)C4)cnc23)cccc1-c1cccc(-c2nc3cc(CN[C@H]4CCC[C@H]4C(=O)O)cc(C#N)c3o2)c1C [Example 175, (1R,2S)-2-((7-cyano-2-(3′-(3-(((R)-3-hydroxypyrrolidin-1-yl)methyl)-1,7-naphthyridin-8-ylamino)-2,2′-dimethylbiphenyl-3-yl)benzo[d]oxazol-5-yl)methylamino) cyclopentanecarboxylic acid]
Cc1c(Nc2nccc3cc(CN4CC[C@@H](O)C4)cnc23)cccc1-c1cccc(-c2nc3cc(CN[C@H]4C[C@@H](C(=O)O)C4)cc(C#N)c3o2)c1C [Example 180, cis-3-((7-cyano-2-(3′-(3-(((R)-3-hydroxypyrrolidin-1-yl)methyl)-1,7-naphthyridin-8-ylamino)-2,2′-dimethylbiphenyl-3-yl)benzo [d]oxazol-5-yl)methylamino)cyclobutane carboxylic acid]
CCN1CCc2c(nc(C(=O)Nc3cccc(-c4cccc(-c5nc6cc(CN7CC[C@@](C)(C(=O)O)C7)cc(C#N)c6o5)c4C)c3Cl)n2C)C1 [Example 95, (R)-1-((2-(2′-chloro-3′-(5-ethyl-1-methyl-4,5,6,7-tetrahydro-1H-imidazo[4,5-c]pyridine-2-carboxamido)-2-methylbiphenyl-3-yl)-7-cyanobenzo[d]oxazol-5-yl)methyl)-3-methylpyrrolidine-3-carboxylic acid]
CCN(C)CC(=O)N1Cc2nc(-c3cccc(-c4cccc(-c5nc6cc(CN7CC[C@@H](C(=O)O)C7)cc(C#N)c6o5)c4C)c3C)sc2C1 [Example 114, (R)-1-((7-cyano-2-(3′-(5-(2-(ethyl(methyl)amino)acetyl)-5,6-dihydro-4H-pyrrolo[3,4-d]thiazol-2-yl)-2,2′-dimethylbiphenyl-3-yl)benzo[d]oxazol-5-yl)methyl)pyrrolidine-3-carboxylic acid]
Cc1c(Nc2nccc3cc(C4CCCN4)cnc23)cccc1-c1cccc(-c2nc3cc(CN4CC[C@@H](C(=O)O)C4)cc(C#N)c3o2)c1C (single isomer, unassigned) [Example 98]
Cc1c(Nc2nccc3cc(CN4CC[C@@](C)(C(=O)O)C4)cnc23)cccc1-c1cccc(-c2nc3cc(CN4CC[C@@H](O)C4)cc(C#N)c3o2)c1C [Example 216, (R)-1-((8-(3′-(7-cyano-5-(((R)-3-hydroxypyrrolidin-1-yl)methyl)benzo [d]oxazol-2-yl)-2,2′-dimethylbiphenyl-3-ylamino)-1,7-naphthyridin-3-yl)methyl)-3-methylpyrrolidine-3-carboxylic acid]
Cc1c(-c2nc3cc(CN4CC[C@@](C)(C(=O)O)C4)cc(C#N)c3o2)cccc1-c1cccc(NC(=O)c2nc3c(n2C)CCN(C[C@@H](C)O)C3)c1Cl [Example 157, (R)-1-((2-(2′-chloro-3′-(5-((R)-2-hydroxypropyl)-1-methyl-4,5,6,7-tetrahydro-1H-imidazo[4,5-c]pyridine-2-carboxamido)-2-methylbiphenyl-3-yl)-7-cyanobenzo[d]oxazol-5-yl)methyl)-3-methylpyrrolidine-3-carboxylic acid]

Reference: patent US10308644B2, “Heterocyclic compounds as immunomodulators” (Incyte Corporation, priority 2016, dated 2019)
